We go through 22 molecules from ChEMBL document CHEMBL1141367, “Substituted 2-[(4-aminomethyl)phenoxy]-2-methylpropionic acid PPARalpha agonists. 1. Discovery of a novel series of potent HDLc raising agents” (J Med Chem, 2007).

Experiment [1] concerns the target T1, Peroxisome proliferator-activated receptor delta (Homo sapiens, UniProt Q03181).
T1 sequence (Q03181 whole entry): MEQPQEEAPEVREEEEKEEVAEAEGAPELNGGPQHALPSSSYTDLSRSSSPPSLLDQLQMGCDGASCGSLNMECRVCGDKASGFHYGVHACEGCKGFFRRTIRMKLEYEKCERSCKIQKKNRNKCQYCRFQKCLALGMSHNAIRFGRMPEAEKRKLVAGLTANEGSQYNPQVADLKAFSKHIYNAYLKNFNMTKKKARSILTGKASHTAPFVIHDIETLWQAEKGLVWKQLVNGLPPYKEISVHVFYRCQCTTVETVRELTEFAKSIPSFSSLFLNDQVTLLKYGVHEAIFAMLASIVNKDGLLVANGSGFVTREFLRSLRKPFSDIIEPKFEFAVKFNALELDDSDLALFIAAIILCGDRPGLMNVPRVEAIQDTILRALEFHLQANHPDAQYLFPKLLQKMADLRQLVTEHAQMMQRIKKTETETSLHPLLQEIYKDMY
Description: Agonist potency at PPARdelta in CV1 cells by cell based transient transfection assay

Experiment [2] deals with T2, Peroxisome proliferator-activated receptor gamma (Homo sapiens, UniProt P37231).
T2 sequence (P37231 whole entry): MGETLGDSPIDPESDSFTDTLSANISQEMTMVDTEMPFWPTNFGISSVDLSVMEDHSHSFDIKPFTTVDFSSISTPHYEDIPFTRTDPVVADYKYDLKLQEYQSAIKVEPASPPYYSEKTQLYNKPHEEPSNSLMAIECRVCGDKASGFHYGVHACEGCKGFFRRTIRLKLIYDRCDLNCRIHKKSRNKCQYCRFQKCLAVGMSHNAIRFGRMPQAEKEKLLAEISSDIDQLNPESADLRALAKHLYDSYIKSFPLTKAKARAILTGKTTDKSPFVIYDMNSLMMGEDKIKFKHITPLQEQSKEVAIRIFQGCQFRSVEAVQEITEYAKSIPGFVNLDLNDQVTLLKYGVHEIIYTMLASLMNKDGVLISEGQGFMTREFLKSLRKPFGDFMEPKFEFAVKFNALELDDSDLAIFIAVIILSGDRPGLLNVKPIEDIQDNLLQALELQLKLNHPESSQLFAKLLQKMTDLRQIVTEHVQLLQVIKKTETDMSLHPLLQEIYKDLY
It is filed as functional, cell-based, CV-1.
Description: Agonist potency at PPARgamma in CV1 cells by cell based transient transfection assay

Experiment [3] has as its target T3, Peroxisome proliferator-activated receptor alpha (Homo sapiens) (UniProt Q07869).
T3 sequence (whole entry): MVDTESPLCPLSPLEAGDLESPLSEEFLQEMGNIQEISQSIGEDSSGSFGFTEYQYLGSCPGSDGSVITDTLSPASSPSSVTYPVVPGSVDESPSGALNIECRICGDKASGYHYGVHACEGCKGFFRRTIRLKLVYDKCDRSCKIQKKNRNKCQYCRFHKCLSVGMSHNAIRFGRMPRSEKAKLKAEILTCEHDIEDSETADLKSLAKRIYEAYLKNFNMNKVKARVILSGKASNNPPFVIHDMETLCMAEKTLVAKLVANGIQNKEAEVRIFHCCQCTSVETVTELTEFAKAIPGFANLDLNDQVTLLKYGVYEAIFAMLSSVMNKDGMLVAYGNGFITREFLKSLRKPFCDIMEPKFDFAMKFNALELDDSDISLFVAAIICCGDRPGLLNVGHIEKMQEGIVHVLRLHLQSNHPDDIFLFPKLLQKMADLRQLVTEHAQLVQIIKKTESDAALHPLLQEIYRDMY
As to the kind of experiment: Agonist potency at PPARalpha expressed in CV1 cells relative to GW-590735. It is filed as functional, cell-based. Conditions: CV-1.

The target in experiment [4] is T4, Peroxisome proliferator-activated receptor alpha (Homo sapiens, UniProt Q07869).
T4 sequence (Q07869 whole entry): T3 sequence (whole entry)
Description: Agonist potency at PPARalpha in CV1 cells by cell based transient transfection assay

Experiment [5] has as its system Mus musculus. As to the kind of experiment: Decrease in plasma VLDL level in human Apo-A-I transgenic C57BL/6 mouse at 50 mg/kg. Type of experiment: functional. On the set-up: scale not given: the % may be the effect or the level left.
Experiment [6] relates to Mus musculus. In words: Increase in HDL cholesterol level in human Apo-A-I transgenic C57BL/6 mouse at 50 mg/kg. Type of experiment: functional.
The test system of experiment [7] is Mus musculus. As to the kind of experiment: Decrease in plasma TG level in human Apo-A-I transgenic C57BL/6 mouse at 50 mg/kg. It is filed as functional. Also noted: scale not given: the % may be the effect or the level left.
The test system of experiment [8] is Mus musculus. As to the kind of experiment: Decrease in LDL cholesterol level in human Apo-A-I transgenic C57BL/6 mouse at 50 mg/kg. It is filed as functional. Also noted: scale not given: the % may be the effect or the level left.

What is called EC50 is the concentration that produces a half-maximal response. With `Cc1nc(-c2ccc(C(F)(F)F)cc2)sc1C(=O)N(C)Cc1ccc(OC(C)(C)C(=O)O)cc1`, the EC50 was more than 10 µM in experiment [1], more than 10 µM in experiment [2] and 0.24 µM in experiment [4]. The molecule further had an Activity in experiment [3] of 84%.

As to `Cc1nc(-c2cccc(C(F)(F)F)c2)sc1C(=O)NCc1ccc(OC(C)(C)C(=O)O)cc1`, the EC50 is more than 25 µM in experiment [1], more than 25 µM in experiment [2] and 0.004 µM in experiment [4]. Further, the Activity in experiment [3] was determined as 106%.

Turning to `Cc1nc(-c2ccc(C(F)(F)F)cc2)sc1CCc1ccc(OC(C)(C)C(=O)O)cc1`, the EC50 stood at 0.02 µM in experiment [1], 1.87 µM in experiment [2] and 0.21 µM in experiment [4]. The Activity in experiment [3] came out at 138%.

Take `Cc1cc(CCc2sc(-c3ccc(C(F)(F)F)cc3)nc2C)ccc1OCC(=O)O`: the figures for the EC50 in experiment [1], in experiment [2] and in experiment [4] were 0.004 µM, 10 µM and 2 µM, respectively. Moreover, the Activity in experiment [3] amounted to 85%.

Consider `Cc1nc(-c2ccc(C(F)(F)F)cc2)sc1CNC(=O)c1ccc(OC(C)(C)C(=O)O)cc1`, for which the EC50 in experiment [1] was 6.26 µM; in experiment [2] it was more than 10 µM; in experiment [4], 1.32 µM. The Activity in experiment [3] was determined as 109%.

Consider `Cc1nc(C(=O)NCc2ccc(OC(C)(C)C(=O)O)cc2)c(C)s1`, for which the values for the EC50 in experiment [1], in experiment [2] and in experiment [4] were 0.66 µM, more than 10 µM and 1.89 µM, respectively. This molecule also yielded an Activity in experiment [3] of 171%.

In experiment [3], `Cc1cc(SCc2sc(-c3ccc(C(F)(F)F)cc3)nc2C)ccc1OCC(=O)O` returned an Activity of 108%.

Consider `Cc1nc(-c2ccc([N+](=O)[O-])cc2)sc1C(=O)NCc1ccc(OC(C)(C)C(=O)O)cc1`, for which the EC50 is more than 10 µM in experiment [1], more than 10 µM in experiment [2] and 0.03 µM in experiment [4]. For the same molecule, in experiment [3], the Activity was 111%.

Turning to `Cc1nc(-c2ccc(C(C)(C)C)cc2)sc1C(=O)NCc1ccc(OC(C)(C)C(=O)O)cc1`, the EC50 was more than 10 µM in experiment [1] and 0.86 µM in experiment [2]. This molecule yielded an Activity in experiment [3] of 66%.

Consider `CC(C)(Oc1ccc(CNC(=O)c2sc(-c3ccc(C(F)(F)F)cc3)nc2C(F)(F)F)cc1)C(=O)O`, for which the figures for the EC50 in experiment [1], in experiment [2] and in experiment [4] were 8.24 µM, 0.73 µM and 0.004 µM, respectively. The same molecule showed an Activity in experiment [3] of 98%.

For `Cc1nc(-c2ccc(OC(F)(F)F)cc2)sc1C(=O)NCc1ccc(OC(C)(C)C(=O)O)cc1`, the EC50 in experiment [2] was more than 10 µM. For the same molecule, in experiment [3], the Activity turned out to be 116%.

For the molecule `COc1ccc(-c2nc(C)c(C(=O)NCc3ccc(OC(C)(C)C(=O)O)cc3)s2)cc1`, the figures for the EC50 in experiment [1], in experiment [2] and in experiment [4] were more than 10 µM, more than 10 µM and 0.01 µM, respectively. The same molecule showed an Activity in experiment [3] of 103%.

Take `Cc1nc(-c2ccccc2C(F)(F)F)sc1C(=O)NCc1ccc(OC(C)(C)C(=O)O)cc1`: the EC50 in experiment [1] was 0.808 µM; in experiment [2] it was more than 25 µM; in experiment [4], 0.465 µM. In experiment [3], this molecule gave an Activity of 82%.

For the molecule `Cc1nc(-c2ccc(Cl)cc2)sc1C(=O)NCc1ccc(OC(C)(C)C(=O)O)cc1`, the 50% effective concentration (EC50) in experiment [2] was more than 10 µM; in experiment [4], 0.01 µM. The molecule further displayed an Activity in experiment [3] of 94%.

`Cc1nc(-c2ccc(N)cc2)sc1C(=O)NCc1ccc(OC(C)(C)C(=O)O)cc1`: the values for the EC50 in experiment [1], in experiment [2] and in experiment [4] were more than 10 µM, more than 10 µM and 5.64 µM, respectively. Moreover, the Activity in experiment [3] was determined as 67%.

As to `Cc1nc(-c2ccc(O)cc2)sc1C(=O)NCc1ccc(OC(C)(C)C(=O)O)cc1`, the EC50 in experiment [1], in experiment [2] and in experiment [4] was more than 10 µM throughout.

Turning to `CC(C)OC(=O)C(C)(C)Oc1ccc(C(=O)c2ccc(Cl)cc2)cc1` [FENOFIBRATE], the Activity in the experiment with Mus musculus [5] is on record as 64%; in the experiment with Mus musculus [6], 26%; in the experiment with Mus musculus [7], 43%; with Mus musculus [8] it was 78%.

With `Cc1nc(-c2ccc(C(F)(F)F)cc2)sc1CNCc1ccc(OC(C)(C)C(=O)O)cc1`, the EC50 in experiment [1] is 4.05 µM; in experiment [2], more than 10 µM; in experiment [4], 0.07 µM. In experiment [3], this molecule returned an Activity of 110%.

With `Cc1nc(-c2ccc(F)cc2)sc1C(=O)NCc1ccc(OC(C)(C)C(=O)O)cc1`, the EC50 was more than 10 µM in experiment [1], more than 10 µM in experiment [2] and 0.04 µM in experiment [4]. In experiment [3], this molecule yielded an Activity of 118%.

As to `Cc1nc(-c2ccc(C(F)(F)F)cc2)sc1C(=O)NCCc1ccc(OC(C)(C)C(=O)O)cc1`, the EC50 in experiment [1] was more than 10 µM; in experiment [2], more than 10 µM; in experiment [4], 0.11 µM. The Activity in experiment [3] worked out at 129%.

On to `Cc1nc(-c2ccc(OS(C)(=O)=O)cc2)sc1C(=O)NCc1ccc(OC(C)(C)C(=O)O)cc1`, for which the EC50 in experiment [1], in experiment [2] and in experiment [4] was more than 10 µM each time.

As to `Cc1nc(-c2ccc(C(F)(F)F)cc2)sc1C(=O)Nc1ccc(OC(C)(C)C(=O)O)cc1`, the EC50 in experiment [1] is more than 10 µM; in experiment [2] it was more than 10 µM; in experiment [4], 9.5 µM. Besides, the Activity in experiment [3] was determined as 69%.
